US20060167057A1, “Compounds for the treatment of CNS and amyloid associated diseases” (priority 2004, published 2006)

Assays:
[1] = target: T1, IAPP (Homo sapiens, UniProt P10997); assay: Electrospray MS assay for binding to IAPP; parameters: key to MS Results (IAPP binding), Water: 0 = None; conditions: 100 μM compound, 20 μM IAPP; for MS Results (IAPP binding), Water: pH 7.4, aqueous solution; for MS Results (IAPP binding), 20% Ethanol: pH 7.4, 20% ethanol in water
T1 construct: which is a 37 amino acid peptide, derived from a larger precursor peptide, called pro-IAPP
T1 sequence (P10997 34-70 limits assumed): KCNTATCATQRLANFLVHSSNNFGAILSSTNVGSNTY
Description: The ability of a therapeutic compound of the invention to inhibit an interaction between an amyloidogenic protein and a glycoprotein or proteoglycan constituent of a basement membrane can be assessed by an in vitro binding assay, such as that described in U.S. Pat. No. 5,164,295, the contents of which are hereby incorporated by reference. Alternatively, the ability of a compound to bind to an amyloidogenic protein or to inhibit the binding of a basement membrane constituent (e.g. HSPG) to an amyloidogenic protein (e.g. Aβ) can be measured using a mass spectrometry assay where soluble protein, e.g Aβ, IAPP, β2M is incubated with the compound. A compound which binds to, e.g Aβ, will induce a change in the mass spectrum of the protein. Exemplary protocols for a mass spectrometry assay employing Aβ and IAPP can be found in the Examples, the results of which are provided in Table 5. The protocol can readily be modified to adjust the sensitivity of the data, e.g., by adjusting the amount of protein and/or compound employed. Thus, e.g., binding might be detected for test compounds noted as not having detectable binding employing less sensitive test protocols.
The binding ability between the compounds synthesized in Example 4 and IAPP in an aqueous solution is tested. The binding ability is attributed semi-quantitatively from the intensities of peptide-compound complex peaks observed in the Electrospray Mass Spectrum.
In the MS assay for IAPP, samples are prepared as both aqueous solutions and as 20% ethanol in water solutions, including 100 μM of an exemplary compound as prepared in. Example 4 and 20 μM of solubilized IAPP. The stock solution contains 30 μM IAPP and the initial pH is 3.8. Generally, IAPP precipitates out of solution at concentrations higher than 50 μM and pH higher than ˜6 as soon as a test compound is mixed with the peptide. The pH value of each sample, therefore, is adjusted to 7.4 ([…]) by addition of 0.1% aqueous sodium hydroxide. The solutions aer then analyzed by electrospray ionization mass spectrometry using a Waters ZQ 4000 mass spectrometer. Samples are introduced by direct infusion at a flow-rate of 25 μL/min within 2 hr. after sample preparation. The source temperature is kept at 70° C. and the cone voltage is 20 V for all the analysis. Data are processed using Masslynx 3.5 software. IAPP (MW 3903.4) alone at 20 μM is analyzed at pH 7.32 as a control. Sodium clusters, which are typical of this system at +3 and +4 at m/z 1301.9 and 976.7 regions, may be observed. In Table 8, a blank box means that a value was not determined for that compound in that assay.

[2] = target: T2, L1 transport system (large neutral amino acid carrier, L1-system carrier) (Rattus norvegicus, UniProt Q63016); assay: Competitive binding assay to the brain L1 transport system (L-[U-14C]phenylalanine on rat primary cerebrovascular endothelial cells); conditions: for Status of Binding: compounds of Example 4, 10^−6, 10^−5 and 10^−4, Δ versus phenylalanine
T2 construct: functionality of their endogenous transporters such as the L1-system carrier; endogenous in cells; host or cells: rat primary cerebrovascular (brain microcapillary) endothelial cells, RBEC
Summary of the method: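 Cells were primary cerebral microvascular endothelial cells from cortices of 24-day-old rats, isolated by collagenase/DNAse digestion, dextran separation and mesh filtration.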

T2 sequence (Q63016 whole entry): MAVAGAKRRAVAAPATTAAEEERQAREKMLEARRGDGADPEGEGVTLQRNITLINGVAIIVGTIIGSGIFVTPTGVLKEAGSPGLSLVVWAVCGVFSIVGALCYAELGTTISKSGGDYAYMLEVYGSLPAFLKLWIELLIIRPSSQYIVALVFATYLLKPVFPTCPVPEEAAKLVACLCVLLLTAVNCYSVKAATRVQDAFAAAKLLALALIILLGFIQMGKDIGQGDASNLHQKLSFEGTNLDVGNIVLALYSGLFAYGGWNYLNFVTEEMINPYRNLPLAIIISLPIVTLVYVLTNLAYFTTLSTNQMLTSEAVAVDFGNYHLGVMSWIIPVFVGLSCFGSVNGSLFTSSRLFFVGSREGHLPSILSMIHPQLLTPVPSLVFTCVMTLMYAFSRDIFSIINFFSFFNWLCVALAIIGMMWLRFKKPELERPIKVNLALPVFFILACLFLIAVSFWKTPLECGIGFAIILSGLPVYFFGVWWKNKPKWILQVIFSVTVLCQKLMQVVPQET
T2 sequence (Q794F9 whole entry partner): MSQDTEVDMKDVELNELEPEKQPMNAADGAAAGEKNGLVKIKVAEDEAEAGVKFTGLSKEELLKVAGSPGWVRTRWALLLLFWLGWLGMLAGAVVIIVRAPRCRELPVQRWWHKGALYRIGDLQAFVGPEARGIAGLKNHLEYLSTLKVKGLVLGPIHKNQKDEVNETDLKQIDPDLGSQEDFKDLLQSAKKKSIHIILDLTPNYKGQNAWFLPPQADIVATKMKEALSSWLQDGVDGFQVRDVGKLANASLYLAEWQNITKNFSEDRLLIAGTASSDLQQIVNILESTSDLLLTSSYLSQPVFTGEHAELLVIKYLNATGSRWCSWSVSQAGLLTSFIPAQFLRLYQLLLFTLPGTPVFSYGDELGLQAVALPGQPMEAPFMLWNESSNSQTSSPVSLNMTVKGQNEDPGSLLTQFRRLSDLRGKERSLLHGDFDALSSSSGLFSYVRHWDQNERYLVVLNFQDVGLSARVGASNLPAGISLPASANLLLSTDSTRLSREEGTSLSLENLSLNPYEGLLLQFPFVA

Compound | MS Results (IAPP binding), Water [1] | Comparison with the Binding of Phenylalanine ([2]; 10^−4 M) | Comparison with the Binding of Phenylalanine ([2]; 10^−5 M) | Comparison with the Binding of Phenylalanine ([2]; 10^−6 M) | also measured
COc1ccc(-n2nnnc2[S+]([O-])Cc2cccc(C[C@H](N)C(=O)O)c2)cc1 (some centres unmarked) [drawing 516] | + (+ = Weak (15-30% of free peptide)) | – | – | – | –
N[C@@H](Cc1cccc(C[S+]([O-])c2nnc(-c3ccccc3)[nH]2)c1)C(=O)O (some centres unmarked) [drawing 526] | 0 | – | – | – | –
N[C@@H](Cc1cccc(CSc2ncc[nH]2)c1)C(=O)O | 0 | – | – | – | –
N[C@@H](Cc1cccc(CSc2nc3ccc(Cl)cc3s2)n1)C(=O)O [drawing 520] | +++ (+++ = Strong (50 and higher % of free peptide)) | – | – | – | –
N[C@@H](Cc1cccc(CS(=O)(=O)c2ncc[nH]2)c1)C(=O)O [drawing 527] | 0 | – | – | – | –
N[C@@H](Cc1cccc(CSc2nccc(O)n2)c1)C(=O)O [drawing 517] | 0 | – | – | – | –
N[C@@H](Cc1cccc(CSc2nnnn2-c2ccccc2)c1)C(=O)O [drawing 509] | + (+ = Weak (15-30% of free peptide)) | – | – | – | MS Results (IAPP binding), 20% Ethanol [1]: ++ (++ = Moderate (30-50% of free peptide))
N[C@@H](Cc1cccc(CSc2nc3ccccc3[nH]2)c1)C(=O)O [drawing 510] | 0 | – | – | – | MS Results (IAPP binding), 20% Ethanol [1]: + (+ = Weak (15-30% of free peptide))
N[C@@H](Cc1cccc(CS(=O)(=O)c2nc3ccccc3[nH]2)c1)C(=O)O [drawing 521] | + (+ = Weak (15-30% of free peptide)) | – | – | – | –
N[C@@H](Cc1cccc(CSc2ncnc3[nH]ncc23)n1)C(=O)O [drawing 513] | 0 | – | – | – | –
N[C@@H](Cc1cccc(CSc2nnnn2-c2ccc(O)cc2)c1)C(=O)O [drawing 523] | ++ (++ = Moderate (30-50% of free peptide)) | – | – | – | MS Results (IAPP binding), 20% Ethanol [1]: +++ (+++ = Strong (50 and higher % of free peptide))
N[C@@H](Cc1cccc(CSc2nccc(C(F)(F)F)n2)n1)C(=O)O [drawing 519] | insoluble | – | – | – | –
N[C@@H](Cc1cccc(CSc2nc3ccccc3[nH]2)n1)C(=O)O [drawing 512] | 0 | – | – | – | –
COc1ccc(-n2nnnc2SCc2cccc(C[C@H](N)C(=O)O)c2)cc1 [drawing 508] | – | – | – | – | MS Results (IAPP binding), 20% Ethanol [1]: +++ (+++ = Strong (50 and higher % of free peptide))
N[C@@H](Cc1cccc(C[S+]([O-])c2nnnn2-c2ccccc2)c1)C(=O)O (some centres unmarked) [drawing 518] | ++ (++ = Moderate (30-50% of free peptide)) | – | – | – | MS Results (IAPP binding), 20% Ethanol [1]: ++ (++ = Moderate (30-50% of free peptide))
N[C@@H](Cc1cccc(CS(=O)(=O)c2nc3ccccc3[nH]2)n1)C(=O)O [drawing 514] | 0 | – | – | – | –
N[C@@H](Cc1cccc(CSc2nnc(-c3ccncc3)o2)c1)C(=O)O [drawing 524] | ++ (++ = Moderate (30-50% of free peptide)) | – | – | – | MS Results (IAPP binding), 20% Ethanol [1]: + (+ = Weak (15-30% of free peptide))
NC(Cc1cccc(CSc2nnnn2-c2ccccc2)c1)C(=O)O (centres unmarked) [Compound 8] | – | 3 (X > 20 Rank 3) | 3 (X > 20 Rank 3) | 3 (X > 20 Rank 3) | –
NC(Cc1cccc(CSc2ncccc2C(=O)O)c1)C(=O)O (centres unmarked) [Compound 137] | – | 0 (X < 0 Rank 0) | 0 (X < 0 Rank 0) | 2 (10 < X < 20 Rank 2) | –

Compound | MS Results (IAPP binding), Water [1] | Comparison with the Binding of Phenylalanine ([2]; 10^−4 M) | Comparison with the Binding of Phenylalanine ([2]; 10^−5 M) | Comparison with the Binding of Phenylalanine ([2]; 10^−6 M) | also measured
Cc1nnc(Sc2cccc(-c3cccc(CC(N)C(=O)O)c3)c2)s1 (centres unmarked) [Compound 111] | – | 2 (10 < X < 20 Rank 2) | 3 (X > 20 Rank 3) | 3 (X > 20 Rank 3) | –
NC(Cc1cccc(CSc2ncccn2)n1)C(=O)O (centres unmarked) [Compound 154] | – | 1 (0 < X < 10 Rank 1) | 0 (X < 0 Rank 0) | 0 (X < 0 Rank 0) | –
Cc1nnc(SCc2cccc(CC(N)C(=O)O)n2)s1 (centres unmarked) [Compound 96] | – | 0 (X < 0 Rank 0) | 1 (0 < X < 10 Rank 1) | 1 (0 < X < 10 Rank 1) | –
N[C@@H](Cc1cccc(C[S+]([O-])c2nnnn2-c2ccccc2)c1)C(=O)O (some centres unmarked) [drawing 475] | – | – | – | – | Status of Binding [2]: 3 (3: Δ > 10%, significantly higher binding affinity than phenylalanine)
COc1ccc(-n2nnnc2SCc2cccc(C[C@H](N)C(=O)O)c2)cc1 [drawing 467] | – | – | – | – | Status of Binding [2]: 3 (3: Δ > 10%, significantly higher binding affinity than phenylalanine)
N[C@@H](Cc1ccccc1)C(=O)NC(Cc1cccc(CSc2nnc(-c3ccccc3)o2)c1)C(=O)O (some centres unmarked) [Compound 48] | – | 0 (X < 0 Rank 0) | 1 (0 < X < 10 Rank 1) | 1 (0 < X < 10 Rank 1) | –
O=C(NC(Cc1cccc(CSc2nnc(-c3ccccc3)[nH]2)c1)C(=O)O)NC(c1ccccc1)c1ccccc1 (centres unmarked) [Compound 57] | – | 3 (X > 20 Rank 3) | 3 (X > 20 Rank 3) | 3 (X > 20 Rank 3) | –
O=C(Nc1ccc(-c2ccccc2)cc1)NC(Cc1cccc(CSc2cncc3c(C(F)(F)F)cccc23)n1)C(=O)O (centres unmarked) [Compound 61] | – | 2 (10 < X < 20 Rank 2) | 0 (X < 0 Rank 0) | 2 (10 < X < 20 Rank 2) | –
N[C@@H](Cc1cccc(CSc2nc3ccccc3[nH]2)n1)C(=O)O [drawing 471] | – | – | – | – | Status of Binding [2]: 1 (1: −10 > Δ > −50%, lower binding affinity than phenylalanine)
Cc1ccnc(SCc2ccc(-c3ccc(CC(N)C(=O)O)cc3)cc2)n1 (centres unmarked) [Compound 151] | – | 0 (X < 0 Rank 0) | 0 (X < 0 Rank 0) | 2 (10 < X < 20 Rank 2) | –
NC(Cc1cccc(CSc2ccc3ccccc3n2)c1)C(=O)O (centres unmarked) [Compound 114] | – | 0 (X < 0 Rank 0) | 0 (X < 0 Rank 0) | 2 (10 < X < 20 Rank 2) | –
NC(Cc1cccc(-c2cccc(Sc3nnnn3CC(=O)O)c2)c1)C(=O)O (centres unmarked) [Compound 138] | – | 0 (X < 0 Rank 0) | 0 (X < 0 Rank 0) | 1 (0 < X < 10 Rank 1) | –
NC(Cc1cccc(CSc2nc3cc([N+](=O)[O-])ccc3[nH]2)c1)C(=O)O (centres unmarked) [Compound 79] | – | 2 (10 < X < 20 Rank 2) | 3 (X > 20 Rank 3) | 0 (X < 0 Rank 0) | –
NC(=O)C(Cc1cccc(CSc2nnc(-c3ccncc3)o2)c1)NC(=O)NC(c1ccccc1)c1ccccc1 (centres unmarked) [Compound 55] | – | 1 (0 < X < 10 Rank 1) | 3 (X > 20 Rank 3) | 2 (10 < X < 20 Rank 2) | –
O=C(O)C(Cc1cccc(CSc2ncnc3[nH]ncc23)n1)NS(=O)(=O)c1ccc(F)cc1 (centres unmarked) [Compound 64] | – | 0 (X < 0 Rank 0) | 1 (0 < X < 10 Rank 1) | 0 (X < 0 Rank 0) | –
NC(Cc1cccc(CN2CCN(c3cccc(Cl)c3)CC2)c1)C(=O)O (centres unmarked) [Compound 71] | – | 0 (X < 0 Rank 0) | 0 (X < 0 Rank 0) | 1 (0 < X < 10 Rank 1) | –
N[C@@H](Cc1cccc(C[S+]([O-])c2nnc(-c3ccccc3)[nH]2)c1)C(=O)O (some centres unmarked) [drawing 482] | – | – | – | – | Status of Binding [2]: 1 (1: −10 > Δ > −50%, lower binding affinity than phenylalanine)
NC(=O)C(N)Cc1cccc(CSc2ncc[nH]2)c1 (centres unmarked) [Compound 6] | – | 0 (X < 0 Rank 0) | 0 (X < 0 Rank 0) | 3 (X > 20 Rank 3) | –
